Measurements from PubChem BioAssay AID2060485 (Molecular Pharmacology Branch, DTP, NCI, 2025).

System: A375 multi-cell spheroids with HUVEC/MSC, viability
Assay: Anticancer human tumor A375 cell line growth inhibition [GQUAD];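 note: spheroids exposed to compounds for seven days before readout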
Conditions: for IC50: curve of first compound; for viability, T/C: stronger effect = lower value
Summary of the method: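 Multi-cell-type spheroids of tumor cells with HUVEC and mesenchymal stem cells, treated with drug combinations. Concentrations descend in half-log steps from near clinical Cmax, or from 10 microM where Cmax is unknown; viability read-out.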

[1] = second compound 0.0316 µM, first compound 0.000999 µM
[2] = second compound 0.0316 µM, first compound 0.00316 µM
[3] = second compound 0.0316 µM, first compound 0.00999 µM
[4] = second compound 0.0316 µM, first compound 0.0316 µM
[5] = second compound 0.0316 µM, first compound 0.0999 µM
[6] = second compound 0.0316 µM, first compound 0.316 µM
[7] = second compound 0.1 µM, first compound 0.000999 µM
[8] = second compound 0.1 µM, first compound 0.00316 µM
[9] = second compound 0.1 µM, first compound 0.00999 µM
[10] = second compound 0.1 µM, first compound 0.0316 µM
[11] = second compound 0.1 µM, first compound 0.0999 µM
[12] = second compound 0.1 µM, first compound 0.316 µM
[13] = second compound 0.316 µM, first compound 0.000999 µM
[14] = second compound 0.316 µM, first compound 0.00316 µM
[15] = second compound 0.316 µM, first compound 0.00999 µM
[16] = second compound 0.316 µM, first compound 0.0316 µM
[17] = second compound 0.316 µM, first compound 0.0999 µM
[18] = second compound 0.316 µM, first compound 0.316 µM
[19] = second compound 1 µM, first compound 0.000999 µM
[20] = second compound 1 µM, first compound 0.00316 µM
[21] = second compound 1 µM, first compound 0.00999 µM
[22] = second compound 1 µM, first compound 0.0316 µM
[23] = second compound 1 µM, first compound 0.0999 µM
[24] = second compound 1 µM, first compound 0.316 µM
[25] = second compound 3.16 µM, first compound 0.000999 µM
[26] = second compound 3.16 µM, first compound 0.00316 µM
[27] = second compound 3.16 µM, first compound 0.00999 µM
[28] = second compound 3.16 µM, first compound 0.0316 µM
[29] = second compound 3.16 µM, first compound 0.0999 µM
[30] = second compound 3.16 µM, first compound 0.316 µM
[31] = second compound 10 µM, first compound 0.000999 µM
[32] = second compound 10 µM, first compound 0.00316 µM
[33] = second compound 10 µM, first compound 0.00999 µM
[34] = second compound 10 µM, first compound 0.0316 µM
[35] = second compound 10 µM, first compound 0.0999 µM
[36] = second compound 10 µM, first compound 0.316 µM
[37] = second compound 0.0316 µM, first compound 0.1 µM
[38] = second compound 0.0316 µM, first compound 1 µM
[39] = second compound 0.0316 µM, first compound 3.16 µM
[40] = second compound 0.0316 µM, first compound 10 µM
[41] = second compound 0.1 µM, first compound 0.1 µM
[42] = second compound 0.1 µM, first compound 1 µM
[43] = second compound 0.1 µM, first compound 3.16 µM
[44] = second compound 0.1 µM, first compound 10 µM
[45] = second compound 0.316 µM, first compound 0.1 µM
[46] = second compound 0.316 µM, first compound 1 µM
[47] = second compound 0.316 µM, first compound 3.16 µM
[48] = second compound 0.316 µM, first compound 10 µM
[49] = second compound 1 µM, first compound 0.1 µM
[50] = second compound 1 µM, first compound 1 µM
[51] = second compound 1 µM, first compound 3.16 µM
[52] = second compound 1 µM, first compound 10 µM
[53] = second compound 3.16 µM, first compound 0.1 µM
[54] = second compound 3.16 µM, first compound 1 µM
[55] = second compound 3.16 µM, first compound 3.16 µM
[56] = second compound 3.16 µM, first compound 10 µM
[57] = second compound 10 µM, first compound 0.1 µM
[58] = second compound 10 µM, first compound 1 µM
[59] = second compound 10 µM, first compound 3.16 µM
[60] = second compound 10 µM, first compound 10 µM

`CC[C@@]1(O)C(=O)OCc2c1cc1n(c2=O)Cc2cc3c(CN(C)C)c(O)ccc3nc2-1` + Cc1cnc(CNC(=O)c2c(=O)c3ccc(N4CCCN(C)CC4)nc3n3c2sc2ccccc23)cn1 was tested, and the IC50 (second compound 0.0316 µM) was 28.5 nM, the IC50 (second compound 0.1 µM) was 16 nM and the IC50 (second compound 0.316 µM) was < 0.999 nM. For the same compound, the IC50 (second compound 1 µM) was < 0.999 nM, the IC50 (second compound 3.16 µM) was < 0.999 nM and the IC50 (second compound 10 µM) was < 0.999 nM. The viability, T/C [1] was 114%, the viability, T/C [2] was 103% and the viability, T/C [3] was 107%. For the same compound, the viability, T/C [4] was 44.1%, the viability, T/C [5] was 17.8% and the viability, T/C [6] was 11.3%. The viability, T/C [7] was 76.2%, the viability, T/C [8] was 64.3% and the viability, T/C [9] was 64.3%. For the same compound, the viability, T/C [10] was 31.4%, the viability, T/C [11] was 20.5% and the viability, T/C [12] was 11.8%. The viability, T/C [13] was 48.6%, the viability, T/C [14] was 42.5% and the viability, T/C [15] was 45.3%. The viability, T/C [16] was 27.6%, the viability, T/C [17] was 17% and the viability, T/C [18] was 13.9%. For the same compound, the viability, T/C [19] was 39.8%, the viability, T/C [20] was 38.9% and the viability, T/C [21] was 29.9%. For the same compound, the viability, T/C [22] was 29.1%, the viability, T/C [23] was 19.1% and the viability, T/C [24] was 13%. It also gave a viability, T/C [25] of 30.5%, a viability, T/C [26] of 29.8% and a viability, T/C [27] of 30.3%. The viability, T/C [28] was 25.4%, the viability, T/C [29] was 17.6% and the viability, T/C [30] was 14.7%. It also gave a viability, T/C [31] of 23.6%, a viability, T/C [32] of 30.3% and a viability, T/C [33] of 30.8%. The viability, T/C [34] was 23.9%, the viability, T/C [35] was 18.7% and the viability, T/C [36] was 15.6%.

In the case of `CCc1c2c(nc3ccc(O)cc13)-c1cc3c(c(=O)n1C2)COC(=O)[C@]3(O)CC` + Cc1cnc(CNC(=O)c2c(=O)c3ccc(N4CCCN(C)CC4)nc3n3c2sc2ccccc23)cn1, the IC50 (second compound 0.0316 µM) is reported as < 0.999 nM, the IC50 (second compound 0.1 µM) is reported as < 0.999 nM and the IC50 (second compound 0.316 µM) is reported as < 0.999 nM. For the same compound, the IC50 (second compound 1 µM) was < 0.999 nM, the IC50 (second compound 3.16 µM) was < 0.999 nM and the IC50 (second compound 10 µM) was < 0.999 nM. The viability, T/C [1] was 33.5%, the viability, T/C [2] was 15.6% and the viability, T/C [3] was 15.1%. It also gave a viability, T/C [4] of 13.5%, a viability, T/C [5] of 5.18% and a viability, T/C [6] of 0.45%. It also gave a viability, T/C [7] of 26.9%, a viability, T/C [8] of 14.8% and a viability, T/C [9] of 15.6%. The viability, T/C [10] was 15.2%, the viability, T/C [11] was 5.86% and the viability, T/C [12] was 0.41%. The viability, T/C [13] was 26.3%, the viability, T/C [14] was 17.1% and the viability, T/C [15] was 14.8%. It also gave a viability, T/C [16] of 11.9%, a viability, T/C [17] of 4.76% and a viability, T/C [18] of 0.14%. The viability, T/C [19] was 22%, the viability, T/C [20] was 15.4% and the viability, T/C [21] was 14.2%. It also gave a viability, T/C [22] of 10.1%, a viability, T/C [23] of 4.05% and a viability, T/C [24] of 0.08%. The viability, T/C [25] was 19.4%, the viability, T/C [26] was 15.9% and the viability, T/C [27] was 14.4%. It also gave a viability, T/C [28] of 9.47%, a viability, T/C [29] of 0.08% and a viability, T/C [30] of 0.1%. For the same compound, the viability, T/C [31] was 18.4%, the viability, T/C [32] was 16% and the viability, T/C [33] was 14.6%. It also gave a viability, T/C [34] of 7.32%, a viability, T/C [35] of 0.15% and a viability, T/C [36] of 0.15%.

With `COc1cc(C2c3cc4c(cc3C(OC3OC5COC(C)OC5C(O)C3O)C3COC(=O)C23)OCO4)cc(OC)c1O` (stereo not drawn) + Cc1cnc(CNC(=O)c2c(=O)c3ccc(N4CCCN(C)CC4)nc3n3c2sc2ccccc23)cn1 the IC50 (second compound 0.0316 µM) was 656 nM, the IC50 (second compound 0.1 µM) was 213 nM and the IC50 (second compound 0.316 µM) was < 31.6 nM. For the same compound, the IC50 (second compound 1 µM) was < 31.6 nM, the IC50 (second compound 3.16 µM) was < 31.6 nM and the IC50 (second compound 10 µM) was < 31.6 nM. For the same compound, the viability, T/C [4] was 110%, the viability, T/C [37] was 90.6% and the viability, T/C [6] was 65.6%. For the same compound, the viability, T/C [38] was 40.7%, the viability, T/C [39] was 27.4% and the viability, T/C [40] was 20.2%. It also gave a viability, T/C [10] of 73.6%, a viability, T/C [41] of 59.8% and a viability, T/C [12] of 43.6%. It also gave a viability, T/C [42] of 33.5%, a viability, T/C [43] of 25.8% and a viability, T/C [44] of 14.7%. The viability, T/C [16] was 48.3%, the viability, T/C [45] was 50.2% and the viability, T/C [18] was 37.8%. The viability, T/C [46] was 32.4%, the viability, T/C [47] was 22.1% and the viability, T/C [48] was 14.3%. For the same compound, the viability, T/C [22] was 40.1%, the viability, T/C [49] was 38.6% and the viability, T/C [24] was 30.6%. It also gave a viability, T/C [50] of 30.7%, a viability, T/C [51] of 22.3% and a viability, T/C [52] of 15.3%. For the same compound, the viability, T/C [28] was 34%, the viability, T/C [53] was 32.5% and the viability, T/C [30] was 31%. For the same compound, the viability, T/C [54] was 26%, the viability, T/C [55] was 23.4% and the viability, T/C [56] was 13.9%. For the same compound, the viability, T/C [34] was 29.2%, the viability, T/C [57] was 28.1% and the viability, T/C [36] was 31.8%. The viability, T/C [58] was 27.3%, the viability, T/C [59] was 21% and the viability, T/C [60] was 13.4%.

In the case of `COc1cccc2c1C(=O)c1c(O)c3c(c(O)c1C2=O)CC(O)(C(=O)CO)CC3OC1CC(N)C(O)C(C)O1` (stereo not drawn) + Cc1cnc(CNC(=O)c2c(=O)c3ccc(N4CCCN(C)CC4)nc3n3c2sc2ccccc23)cn1, the IC50 (second compound 0.0316 µM) is reported as 168 nM, the IC50 (second compound 0.1 µM) is reported as 56.2 nM and the IC50 (second compound 0.316 µM) is reported as < 31.6 nM. For the same compound, the IC50 (second compound 1 µM) was < 31.6 nM, the IC50 (second compound 3.16 µM) was < 31.6 nM and the IC50 (second compound 10 µM) was < 31.6 nM. It also gave a viability, T/C [4] of 109%, a viability, T/C [37] of 64.1% and a viability, T/C [6] of 31.2%. It also gave a viability, T/C [38] of 20.5%, a viability, T/C [39] of 1.64% and a viability, T/C [40] of 0.08%. The viability, T/C [10] was 59.3%, the viability, T/C [41] was 38.7% and the viability, T/C [12] was 30.2%. It also gave a viability, T/C [42] of 17.9%, a viability, T/C [43] of 1% and a viability, T/C [44] of 0.06%. The viability, T/C [16] was 41.5%, the viability, T/C [45] was 33.4% and the viability, T/C [18] was 27.4%. The viability, T/C [46] was 16.1%, the viability, T/C [47] was 0.21% and the viability, T/C [48] was 0.08%. The viability, T/C [22] was 37.1%, the viability, T/C [49] was 30.9% and the viability, T/C [24] was 27.4%. The viability, T/C [50] was 15.2%, the viability, T/C [51] was 0.07% and the viability, T/C [52] was 0.09%. The viability, T/C [28] was 33%, the viability, T/C [53] was 31.4% and the viability, T/C [30] was 24.5%. It also gave a viability, T/C [54] of 14.9%, a viability, T/C [55] of 0.12% and a viability, T/C [56] of 0.13%. It also gave a viability, T/C [34] of 25.6%, a viability, T/C [57] of 24.9% and a viability, T/C [36] of 20.4%. It also gave a viability, T/C [58] of 13.7%, a viability, T/C [59] of 0.21% and a viability, T/C [60] of 0.22%.
